Tests used:
[1] = Oxidative induction time (OIT) by DSC in polyol ester based base stock oil; conditions: antioxidant at 200 ppm in polyester based base stock; DSC at 200° C., oxygen at 20 ml/min
Protocol: (§1) Macromolecules V and A were tested for their performance in lubricant oils and polymers. The macromolecules were mixed in oil with stirring at 60° C. for 5-15 mins at 200 ppm in petroleum based Group II base stock and polyol based Group V base stock oils. The performance of these antioxidants were evaluated in lubricant base oil stocks including Group II using the DSC technique for determining their oxidation induction times measured in minutes (OIT) at 200° C. The OITs of the antioxidants having structures V and A were compared with commercial antioxidants [L57: Ciba's Irganox L57, 6PPD: N-hexyl phenyl-1,4-phenylene diamine CAS #793-24-8)].
The summary of performance of antioxidants I, II, V, X, XVIII and A and their comparison with commercial antioxidants L 57 and 6PPD in synthetic polyol ester based oil is shown in Table 1. The macromolecules were mixed in oil with stirring at 60° C. for 5-15 mins at 200 ppm in petroleum based Group II base stock and polyol based Group V base stock oils.

[2] = Oxidative induction time (OIT) by DSC in Group II lubricating base oil; conditions: 200 ppm; for OIT performance (FIG. 2) compared with commercial antioxidants: GII base oil, DSC at 200° C., versus L57 and 6PPD
Protocol: Macromolecule A was mixed with oil at 60° C. for 5-15 minutes at 200 ppm in petroleum based group II base stock oil and polyol based Group V base stock oils. It was tested using differential scanning calorimetry (DSC). Its Oxidative Induction Time (OIT) was also compared with commercially used antioxidants 2,6-di-tert-butyl-phenol, Naugalube APAN (PANA) and Vanlube 81 (DODP).
as §1

[3] = Solubility in Group II lubricant oil base stock; type: physicochemical; conditions: 10 g in 90 g Group II lubricant oil base stock, stirred 15 mins at 60° C.; industry standard 1-2%
Protocol: [drawing 67] 10 g of the antioxidant V was added to 90 g of Group II lubricant oil base stock in a beaker. […] This solubility is much higher than the typical industry standards of 1-2%.

Row | solubility in Group II base stock [3] | SMILES | OIT @ 200 ppm [1] [min] | OIT performance (FIG. 2) compared with commercial antioxidants [2] | protection of lubricating oils against oxidation (OIT, FIG. 1) compared with commercial antioxidants ([2]; Group II lubricating oil, DSC, versus 2,6-di-tert-butyl-phenol, Naugalube APAN (PANA), Vanlube 81 (DODP))
1 |  | CC(C)(C)c1cc(CNc2ccc(Nc3ccccc3)cc2)c(O)c(C(C)(C)C)c1 [A] | 37 | superior performance | superior
2 |  | CC(C)CC(C)Nc1ccc(Nc2ccccc2)cc1 (centres unmarked) [Antioxidant 6PPD, N-hexyl phenyl-1,4-phenylene diamine, reference compound] | 22 |  | 
3 | homogenous solution | CC(C)CC(C)N(Cc1cc(C(C)(C)C)c(O)c(C(C)(C)C)c1)c1ccc(Nc2ccccc2)cc1 (centres unmarked) [V] | 36 | superior performance | 
4 |  | Cc1cc(CNc2ccc(Nc3ccccc3)cc2)cc(C(C)(C)C)c1O [X] | 28 |  | 

Source: US9388120B2, “Nitrogen and hindered phenol containing dual functional macromolecular antioxidants: synthesis, performances and applications” (Polnox Corporation, priority 2005, dated 2016)
